{"source": "patent EP2057185B1", "about": "“POLYMYXIN DERIVATIVES AND USES THEREOF” (Northern Antibiotics Oy, priority 2006, dated 2008)", "biological_target": "brush-border membrane (BBM) of the renal cortex", "assay": "Inhibition of binding of radiolabelled gentamycin to brush-border membrane", "set-up": "species or system male albino rats", "conditions": "BBM vesicles, 20 µM [^3H] gentamycin, 60 min at 4°C, pH 7.5", "description": "The binding of the compounds according to this invention to isolated brush-border membrane (BBM) from the renal cortex can be measured indirectly by measuring their ability to inhibit the binding of radiolabelled gentamycin to BBM. Accordingly, the compounds according to this invention that have less affinity to BBM than for example polymyxin B inhibit the binding of radio-labelled gentamycin to a lesser degree than does polymyxin B.\nBBM was isolated from the renal cortex of male albino rats by using the Mg^2+/EGTA precipitation technique as described by Nagai et al. (2006). The binding of gentamycin was measured, according to the method described by Nagai et al. (2006) by incubating BBM vesicles (20µl) in 10 mM HEPES (pH 7.5) with 300 mM mannitol in the presence of 20 µM [^3H] gentamycin (American Radiolabeled Chemicals, Inc. (St. Louis, MO, U.S.A.)) with or without the compound to be tested or a positive control. After an incubation of 60 min at 4°C, 1 ml of ice-cold buffer described above was added, and the mixture was filtered through a Millipore filter (0.45 µm; HAWP). The filter was washed with the buffer and the radioactivity remaining in the filter was measured by using a liquid scintillation counter. The IC50 values were determined as in Nagai et al. (2006) using the Hill equation.", "note": "Bridge positions count the residues as written; N and C are the ends. Square brackets hold non-standard residues; d marks the D form. Peptide text beside a SMILES is read from it. * marks the point of attachment. Octanoyl = CCCCCCCC(=O)*; Dab = NCC[C@H](N)C(=O)O; Abu = CC[C@H](N)C(=O)O"}
{"smiles": "CCCCCCCC(=O)N[C@H](C(=O)N[C@@H](CC)C(=O)N[C@H]1CCNC(=O)[C@H]([C@@H](C)O)NC(=O)[C@H](CCN)NC(=O)[C@H](CCN)NC(=O)[C@H](CC(C)C)NC(=O)[C@@H](Cc2ccccc2)NC(=O)[C@H](CCN)NC1=O)[C@@H](C)O", "note": "[NAB 7061, OA-Thr-Abu-cy[Dab-Dab-DPhe-Leu-Dab-Dab-Thr-]] (Octanoyl-T[Abu][Dab][Dab][dF]L[Dab][Dab]T; lactam 3-C)", "values": [{"measurement": "IC50", "result": 187, "unit": "µM"}]}
